Laboratory results: BindingDB's records for patent US9139585 (Merck Sharp & Dohme, 2015)

Target: T1, ATP-sensitive inward rectifier potassium channel 1 (Homo sapiens, UniProt P48048)
T1 sequence (P48048 whole entry): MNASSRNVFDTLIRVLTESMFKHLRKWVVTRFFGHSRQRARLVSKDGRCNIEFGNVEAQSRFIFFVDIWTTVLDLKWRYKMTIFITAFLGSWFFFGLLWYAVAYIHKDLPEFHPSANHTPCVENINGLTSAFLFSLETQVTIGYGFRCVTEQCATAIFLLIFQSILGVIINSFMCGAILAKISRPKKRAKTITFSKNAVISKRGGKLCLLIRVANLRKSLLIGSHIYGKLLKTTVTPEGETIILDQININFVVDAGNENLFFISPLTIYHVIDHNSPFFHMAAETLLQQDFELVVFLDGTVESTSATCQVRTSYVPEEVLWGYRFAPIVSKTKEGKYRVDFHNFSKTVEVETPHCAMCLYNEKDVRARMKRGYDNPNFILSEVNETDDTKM
Test: Electrophysiology Assay
Conditions: pH 7.4; 37 °C
Protocol: Chinese hamster ovary cells stably expressing Kir1.1 channels were maintained in T-75 flasks in cell culture media in a humidified 10% CO2 incubator at 37 °C. Prior to an experiment, Kir1.1 expression was induced by overnight incubation with 1 mM sodium butyrate. […] After centrifugation, the cell pellet was resuspended in approximately 4.0 ml of bath solution and placed in the IonWorks instrument. The intracellular solution consisted of (in mM): 80 K gluconate, 40 KCl, 20 KF, 3.2 MgCl2, 3 EGTA, 5 Hepes, pH 7.

Cc1c([C@@H](O)CN2CCN(C[C@H](O)c3ccc4c(c3)CCS4(=O)=O)CC2)ccc2c1COC2=O [US9139585, 43B]
IC50: 95 nM
